Test results taken from patent US6479509B1, “Method of promoting smoking cessation” (priority 2000, dated 2002).
Entries after “also recorded” stand apart in the source; their conditions may differ. Read-outs that look alike come from different tables or passages of the source. Marks after values point to notes of the source that are not given here.

Columns and labels:
[1] = tested on: nicotine-induced antinociception; test: Blockade of nicotine-induced antinociception, tail-flick test; format: in vivo, mice; details: for AD50 Tail-Flick: blocking antinociception of nicotine 2.5 mg/kg, systemic administration; for AD50 Tail-Flick / Fold more potent than cocaine in blocking nicotine's antinociceptive effect / Relative potency in blocking nicotine's antinociceptive effect (in words, comparator in the value): mice; for Fold more potent than cocaine in blocking nicotine's antinociceptive effect / Relative potency in blocking nicotine's antinociceptive effect (in words, comparator in the value): tail-flick
Protocol: Anitinociception. The tail-flick method of D'Amour and Smith (1941) as modified by Dewey et al. (1970) was used. A control response (2-4 s) was determined for each animal before treatment, and a test latency was determined after drug administration. To minimize tissue damage, a maximum latency of 10 s was imposed. Antinociceptive response was calculated as percent maximum possible effect (% MPE), where % MPE=[((test-control)/(10-control))×100], Groups of 8 to 12 animals were used for each dose and for each treatment. Mice were tested 5 min after nicotine administration for the dose-response evaluation. Antagonism studies were carried out by pretreating the mice s.c. with either saline or various drugs at different times before nicotine. The animals were tested 5 min after administration of nicotine.
(§1) Data were analyzed statistically by an analysis of variance followed by the Fisher's P least-significant difference multiple comparison test. The null hypothesis was rejected at the […].

[2] = tested on: nicotine-induced seizures; test: Nicotine-induced seizure activity; format: in vivo, mice
Protocol: Seizure Activity. Following s.c. injection of nicotine at a dose of 9 mg/kg, each animal was placed in a 30 cm×30 cm Plexiglass cage and observed for 5 min. […] This amount of time was chosen because seizures occur very quickly after nicotine administration. Results are expressed as percentage seizure.

[3] = tested on: discriminative stimulus effect of nicotine; test: Nicotine drug discrimination; format: in vivo; details: rats
Protocol: Rats were individually housed in a temperature-controlled environment and were maintained on a diet (Agway Rodent Chow) that restricted their body weight to approximately 85% of their free feeding weight. Water was available ad libitum in the home cages. A two-lever operant drug nation paradigm (VI 15) was carried out in eight operant chambers (4 Lafayette model 80001 and 4 BRS/LVIE model s 002). Reinforcement was a Bioserv 45-mg precision dustless pellet. Data were collected automatically by two Commodore 64 microcomputers.
Rats were placed in an operant chamber 5 min after injections. […] Animals were required to meet a criterion of three successive days of 80% or greater correct-lever responding before testing was initiated. Injections were given 5 min before placing the animal in the operant chamber. The schedule of injections, was determined using a Latin Square design. Dose-response curves were determined for nicotine 5 min after s.c. injections.

[4] = target: T1, Dopamine transporter (Rattus norvegicus, UniProt P23977)
T1 construct: from tissue; host or cells: brain

[5] = target: T2, Serotonin transporter (Rattus norvegicus, UniProt P31652)
T2 construct: from tissue; host or cells: brain

[6] = target: T3, Norepinephrine transporter (Rattus norvegicus, UniProt Q63380)
T3 construct: from tissue; host or cells: brain

[7] = tested on: nicotine-induced hypothermia; test: Blockade of nicotine-induced hypothermia (body temperature); format: in vivo, mice; details: for AD50 Hypothermia: blocking nicotine-induced hypothermia, systemic administration
Protocol: Body Temperature. Rectal temperature was measured by a thermistor probe (inserted 24 mm) and digital thermometer (Yellow Springs Instrument Co., Yellow Springs, Ohio). Readings were taken just before and at 30 min after the s.c. injection of nicotine. For antagonism studies, mice were pretreated with either saline or various drugs 10 min before nicotine. The difference in rectal temperature before and after treatment was calculated for each mouse. The ambient temperature of the laboratory varied from 21 to 24° C. from day to day.
as §1

[8] = tested on: nicotine-induced motor impairment; test: Blockade of nicotine-induced motor impairment, rotarod test; format: in vivo, mice; details: without nicotine
Protocol: Motor Coordination. To measure motor coordination, a wooden rod 6 cm in diameter was partitioned into three compartments by circular metal discs (28 cm in diameter) at 18-cm intervals. The rod was attached to a motor and rotated at a rate of 4 rpm. Naive mice were trained until they could remain on the rotarod for 3 min. […] This training took place no longer than 15 min before the s.c. administration of nicotine. Twenty minutes after the injection, mice were placed on the rotarod for 5 min. The amount of time the animals remained on the rotarod was recorded and percent impairment was calculated as % Impairment=[(]-(test time in s/300))×100]. An impairment value of 0% corresponds to the subjects that remained on the rotarod for 5 min (300 s), whereas 100% impairment corresponds to subjects, that fell off the rotarod immediately.
as §1

[9] = tested on: cocaine-induced hyperactivity; test: Locomotor activity, cocaine-induced hyperactivity; format: in vivo, mice; details: doses higher than 1 mg/kg
Protocol: Locomotor Activity. […] Interruptions of the photocell beams (two banks of eight cells each) were then recorded for the next 30 min. Data were expressed as number of photocell interruptions.

[10] = brain; read-out: Dopamine [3H]WIN 35,428 IC50; cited from earlier work
[11] = brain; read-out: Serotonin [3H]Paroxetine IC50; cited from earlier work
[12] = brain; read-out: Norepinephrine [3H]Nisoxetime IC50; cited from earlier work
[13] = read-out: Dopamine [3H]WIN 35,428 IC50; brain; cited from earlier work
[14] = read-out: Norepinephrine [3H]Nisoxetime IC50; brain; cited from earlier work

T1 sequence (P23977 whole entry): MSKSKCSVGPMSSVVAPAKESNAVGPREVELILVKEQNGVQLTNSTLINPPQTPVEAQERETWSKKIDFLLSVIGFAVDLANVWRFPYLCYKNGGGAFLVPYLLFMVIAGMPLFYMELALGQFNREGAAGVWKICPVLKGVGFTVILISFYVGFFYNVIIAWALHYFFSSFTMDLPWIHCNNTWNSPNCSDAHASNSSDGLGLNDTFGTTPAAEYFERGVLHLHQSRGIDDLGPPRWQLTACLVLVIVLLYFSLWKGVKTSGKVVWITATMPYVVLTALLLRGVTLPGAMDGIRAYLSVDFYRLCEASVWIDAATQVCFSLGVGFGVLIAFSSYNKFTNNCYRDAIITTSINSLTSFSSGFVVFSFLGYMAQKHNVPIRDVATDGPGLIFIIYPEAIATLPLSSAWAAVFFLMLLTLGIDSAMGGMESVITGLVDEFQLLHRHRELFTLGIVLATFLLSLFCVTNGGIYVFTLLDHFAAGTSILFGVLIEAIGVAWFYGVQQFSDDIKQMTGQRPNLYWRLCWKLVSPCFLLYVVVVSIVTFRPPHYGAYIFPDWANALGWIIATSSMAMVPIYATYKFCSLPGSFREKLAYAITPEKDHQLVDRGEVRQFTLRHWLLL
T3 sequence (Q63380 1-617): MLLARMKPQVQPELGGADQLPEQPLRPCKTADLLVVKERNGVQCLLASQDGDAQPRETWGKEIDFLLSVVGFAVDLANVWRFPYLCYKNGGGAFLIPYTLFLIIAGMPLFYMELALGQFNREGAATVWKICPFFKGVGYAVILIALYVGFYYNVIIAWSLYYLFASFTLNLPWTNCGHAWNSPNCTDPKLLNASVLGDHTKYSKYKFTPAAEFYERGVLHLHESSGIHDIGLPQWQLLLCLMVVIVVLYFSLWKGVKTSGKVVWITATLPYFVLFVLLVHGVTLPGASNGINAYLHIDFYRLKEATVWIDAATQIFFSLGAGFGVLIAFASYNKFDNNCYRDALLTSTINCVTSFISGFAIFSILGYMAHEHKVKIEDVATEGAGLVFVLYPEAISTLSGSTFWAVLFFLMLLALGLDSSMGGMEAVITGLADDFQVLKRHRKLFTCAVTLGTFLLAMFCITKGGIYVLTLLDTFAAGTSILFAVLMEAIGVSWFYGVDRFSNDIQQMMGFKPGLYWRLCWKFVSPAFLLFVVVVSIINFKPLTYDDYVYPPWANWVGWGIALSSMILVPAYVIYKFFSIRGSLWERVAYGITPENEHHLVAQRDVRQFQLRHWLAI
T2 sequence (P31652 whole entry): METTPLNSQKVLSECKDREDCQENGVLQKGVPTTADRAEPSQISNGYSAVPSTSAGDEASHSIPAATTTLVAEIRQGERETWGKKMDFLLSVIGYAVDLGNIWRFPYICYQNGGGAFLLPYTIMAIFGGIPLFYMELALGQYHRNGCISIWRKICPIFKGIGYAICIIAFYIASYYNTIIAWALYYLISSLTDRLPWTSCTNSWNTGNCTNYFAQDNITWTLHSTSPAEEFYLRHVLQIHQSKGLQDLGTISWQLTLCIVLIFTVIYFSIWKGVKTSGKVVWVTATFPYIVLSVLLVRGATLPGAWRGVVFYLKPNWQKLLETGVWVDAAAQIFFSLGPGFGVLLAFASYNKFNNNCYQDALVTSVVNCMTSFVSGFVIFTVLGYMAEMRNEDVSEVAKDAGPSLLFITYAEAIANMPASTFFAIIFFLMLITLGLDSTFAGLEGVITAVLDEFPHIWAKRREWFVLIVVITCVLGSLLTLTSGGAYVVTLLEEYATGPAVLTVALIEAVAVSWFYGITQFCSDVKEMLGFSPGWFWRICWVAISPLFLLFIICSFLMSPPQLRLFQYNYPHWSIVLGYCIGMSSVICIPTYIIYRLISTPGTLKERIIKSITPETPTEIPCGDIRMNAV

CN1CCCC1c1cccnc1 (single isomer, unassigned; (-)) [Nicotine, (−)-Nicotine, reference compound]
ED50 ([1]; Mus musculus, read-out: ED50 value of nicotine, antinociception): 1.5 mg/kg
% Seizures (Mean) ([2]; saline pretreatment, nicotine 9 mg/kg challenge): 100%
Drug discrimination % Test (Mean ± SE) ([3]; saline pretreatment, nicotine 0.4 mg/kg): 87 ± 8%

COC(=O)[C@H]1[C@@H](c2ccc(Br)cc2)C[C@H]2CC[C@@H]1N2C [RTI-51]
AD50 Tail-Flick [1]: 1.0 μmol/hg
IC50 [4, 10]: 1.69 nM
IC50 [5, 11]: 10.6 nM

COC(=O)[C@H]1[C@@H](c2ccc(Cl)c(Cl)c2)C[C@@H]2CC[C@H]1N2C [RTI-111]
AD50 Tail-Flick [1]: 1.3 μmol/hg
Fold more potent than cocaine in blocking nicotine's antinociceptive effect [1]: ~2.5 fold
IC50 [4, 10]: 0.79 nM
IC50 [5, 11]: 3.1 nM
IC50 [6, 12]: 17.9 nM

COC(=O)[C@H]1[C@@H](c2ccc(Cl)cc2)C[C@@H]2CC[C@H]1N2 [RTI-110]
AD50 Tail-Flick [1]: 1.0 μmol/hg
Fold more potent than cocaine in blocking nicotine's antinociceptive effect [1]: 3 fold
IC50 [4, 10]: 0.62 nM
IC50 [5, 11]: 4.1 nM
IC50 [6, 12]: 5.45 nM

CC(C)OC(=O)[C@@H]1C2CC[C@H](C[C@@H]1c1ccc(Cl)cc1)N2C [RTI-114]
AD50 Tail-Flick [1]: 5.3 μmol/hg
AD50 Hypothermia ([7]; mice): 9 μmol/hg
IC50 [4, 10]: 1.4 nM
IC50 [5, 11]: 1400 nM
IC50 [6, 12]: 778 nM

COC(=O)C1C2CC[C@H](C[C@@H]1c1ccc(N)cc1)N2C (stereo partly drawn) [RTI-29]
AD50 Tail-Flick [1]: 6.8 μmol/hg
Relative potency in blocking nicotine's antinociceptive effect (in words, comparator in the value) [1]: one-half as potent as cocaine; also recorded: approximately the same activity as WIN 35,065-2
IC50 [4, 10]: 9.8 nM
IC50 [5, 11]: 5110 nM
IC50 [6, 12]: 151 nM

COC(=O)[C@H]1C(c2ccc(I)cc2)C[C@@H]2CC[C@H]1N2C (stereo partly drawn) [RTI-55]
AD50 Tail-Flick [1]: 0.9 μmol/hg
AD50 Hypothermia ([7]; mice): 1.2 μmol/hg
Blockade of nicotine-induced hypothermia (in words) ([7]; mice): significantly blocked
IC50 [4, 10]: 1.26 nM
IC50 [5, 11]: 4.2 nM
IC50 [6, 12]: 63 nM

COC(=O)[C@H]1[C@@H](c2ccc(Cl)cc2)C[C@H]2CC[C@H]1N2C [RTI-31]
AD50 Tail-Flick [1]: 7.2 μmol/hg
AD50 Hypothermia ([7]; mice): 1.1 μmol/hg
AD50, blockade of nicotine-induced hypothermia ([7]; mice): 1.1 µmol/kg
Blockade of nicotine-induced hypothermia (in words) ([7]; mice): significantly blocked
IC50 [5, 11]: 44.5 nM

CN1C2CCC1C(C(=O)N1CCCC1)C(c1ccc(I)cc1)C2 (stereo not drawn) [RTI-229]
AD50 Tail-Flick [1]: 3.6 μmol/hg
Relative potency in blocking nicotine's antinociceptive effect (in words, comparator in the value) [1]: about the same potency as cocaine
IC50 [4, 13]: 0.37 nM
IC50 ([5]; read-out: Serotonin [3H]Paroxetine IC50; brain; cited from earlier work): 1790 nM
IC50 [6, 14]: 990 nM

Cc1ccc([C@H]2C[C@@H]3CC[C@H]([C@H]2C(=O)Oc2ccccc2)N3C)cc1 [RTI-120]
AD50 Tail-Flick [1]: 4.0 μmol/hg
Relative potency in blocking nicotine's antinociceptive effect (in words, comparator in the value) [1]: only one-half as potent as RTI-32
IC50 [4, 10]: 3.26 nM
IC50 [5, 11]: 24500 nM
IC50 [6, 12]: 5830 nM

COC(=O)[C@H]1[C@@H](OC(=O)c2ccccc2)C[C@@H]2CC[C@H]1N2C [Cocaine]
AD50 Tail-Flick [1]: 3.2 μmol/hg
Hypothermia, % blockade @ dose ([7]; @ 32 μmol/hg): 20% @ 32
Performance on the rotarod test, by itself [8]: did not significantly alter performance
% Seizures (Mean) ([2]; cocaine 10 mg/kg pretreatment, nicotine 9 mg/kg): 83.3%
% Seizures (Mean) ([2]; cocaine 20 mg/kg pretreatment, nicotine 9 mg/kg, P < .05 from saline/nicotine): 50^c %
% Seizures (Mean) ([2]; cocaine 30 mg/kg pretreatment, nicotine 9 mg/kg, P < .05 from saline/nicotine): 16^c %
AD50, antagonism of nicotine-induced seizures ([2]; mice, estimated): 50 µmol/kg
% Seizures (Mean) ([2]; saline pretreatment, cocaine 20 mg/kg challenge): 0%
Drug discrimination % Test (Mean ± SE) ([3]; cocaine 10 mg/kg pretreatment, nicotine 0.4 mg/kg): 69 ± 8%
Drug discrimination % Test (Mean ± SE) ([3]; saline pretreatment, cocaine 10 mg/kg): 17 ± 7%

CO[C@H]1CC=C2CCN3CCC4=C(CC(=O)OC4)[C@]23C1 [DHβE, Dihydro-β-erythroidine]
Effect of higher doses on mouse spontaneous activity [9]: significantly decreased mouse spontaneous activity

COC(=O)[C@H]1[C@@H](c2ccc(Cl)c(C)c2)C[C@@H]2CC[C@H]1N2C [RTI-112]
AD50 Tail-Flick [1]: 3.5 μmol/hg
Relative potency in blocking nicotine's antinociceptive effect (in words, comparator in the value) [1]: approximately the same activity as cocaine; also recorded: approximately twice as potent as WIN 35,065-2
AD50 Hypothermia ([7]; mice): 1.5 μmol/hg
Blockade of nicotine-induced hypothermia (in words) ([7]; mice): significantly blocked
IC50 [4, 10]: 0.8 nM
IC50 [5, 11]: 10.5 nM
IC50 [6, 12]: 36.2 nM

CNC1(C)C2CCC(C2)C1(C)C (stereo not drawn) [mecamylamine]
Effect of higher doses on mouse spontaneous activity [9]: significantly decreased mouse spontaneous activity

CN1[C@H]2CC[C@@H]1[C@@H](C(=O)O)[C@@H](c1ccc(Cl)cc1)C2 [RTI-70]
Tail-flick, % blockade @ dose ([1]; @ 90 μmol/hg): 0% @ 90
Relative potency in blocking nicotine's antinociceptive effect (in words, comparator in the value) [1]: much less potent than cocaine
Hypothermia, % blockade @ dose ([7]; @ 90 μmol/hg): 40% @ 90
IC50 [4, 10]: 2070 nM
IC50 [5, 11]: 59500 nM
IC50 [6, 12]: > 200000 nM

CN1C2CCC1C(C(=O)N1CCCC1)C(c1ccc(Cl)cc1)C2 (stereo not drawn) [RTI-147]
AD50 Tail-Flick [1]: 5.7 μmol/hg
Relative potency in blocking nicotine's antinociceptive effect (in words, comparator in the value) [1]: about one-half as potent as cocaine
IC50 [4, 13]: 1.38 nM
IC50 [5, 11]: 12400 nM
IC50 [6, 14]: 3950 nM

CN1[C@H]2CC[C@@H]1[C@@H](C(=O)Oc1ccccc1)[C@@H](c1ccc(Cl)cc1)C2 [RTI-113]
AD50 Tail-Flick [1]: 5.6 μmol/hg
IC50 [4, 10]: 1.98 nM
IC50 [5, 11]: 2340 nM
IC50 [6, 12]: 2930 nM
